Test results taken from patent publication US7576215B2, “Quinolines and pharmaceutical compositions thereof” (Wyeth, priority 2003, dated 2009).

| Compound | melting point [°C] |
| --- | --- |
| COC(=O)/C=C/c1ccc(COc2cccc(-c3c(-c4ccccc4)cnc4c(C(F)(F)F)cccc34)c2)cc1 | 91 |
| COC(=O)/C=C/c1ccc(COc2cc(-c3c(-c4ccccc4)cnc4c(C(F)(F)F)cccc34)ccc2Cl)cc1 | 149 to 151 |
| O=C(O)/C=C/c1ccc(COc2cc(-c3c(-c4ccccc4)cnc4c(C(F)(F)F)cccc34)ccc2Cl)cc1 | 257 |
| O=S(=O)(c1ccccc1)c1cnc2c(C(F)(F)F)cccc2c1-c1ccccc1 | 149 to 151 |
| Cc1ccccc1-c1cnc2c(C(F)(F)F)cccc2c1-c1cccc(NC(=O)Nc2ccccc2)c1 | 192 to 195 |
| Cc1ccccc1-c1cnc2c(C(F)(F)F)cccc2c1-c1cccc(NC(=O)Nc2ccccc2Cl)c1 | 224 to 226 |
| OCCc1ccc(COc2cccc(-c3c(-c4ccccc4)cnc4c(C(F)(F)F)cccc34)c2)cc1 | 50 |
| Cc1ccccc1-c1cnc2c(C(F)(F)F)cccc2c1-c1cccc(N)c1 | 148 to 151 |
| O=C(Nc1ccccc1)c1cnc2c(C(F)(F)F)cccc2c1-c1ccccc1 [Example 72, N, 4-DIPHENYL-8-(TRIFLUOROMETHYL)QUINOLINE-3-CARBOXAMIDE] | 207 to 208 |
| O=C(Nc1ccccc1)Nc1cccc(-c2c(-c3ccccc3)cnc3c(C(F)(F)F)cccc23)c1 [Example 75, N-PHENYL-N′-{3-[3-PHENYL-8-(TRIFLUOROMETHYL)QUINOLIN-4-YL]PHENYL}UREA] | 202 to 205 |

Next, values leading:

| melting point [°C] | Compound |
| --- | --- |
| 192 to 195 | O=C(Nc1cccc(-c2c(-c3ccccc3)cnc3c(C(F)(F)F)cccc23)c1)Nc1ccccc1Cl [Example 76, N-(2-CHLOROPHENYL)-N′-{3-[3-PHENYL-8-(TRIFLUOROMETHYL)QUINOLIN-4-YL]PHENYL}UREA] |
| 203 to 205 | Cc1ccc(NC(=O)c2cnc3c(C(F)(F)F)cccc3c2-c2ccccc2)cc1 [Example 368, N-(4-METHYLPHENYL)-4-PHENYL-8-(TRIFLUOROMETHYL)QUINOLINE-3-CARBOXAMIDE] |
| 182 to 184 | Cc1cccc(NC(=O)c2cnc3c(C(F)(F)F)cccc3c2-c2ccccc2)c1 [Example 370, N-(3-METHYLPHENYL)-4-PHENYL-8-(TRIFLUOROMETHYL)QUINOLINE-3-CARBOXAMIDE] |
| 155 to 157 | O=C(Nc1cccc(C(F)(F)F)c1)c1cnc2c(C(F)(F)F)cccc2c1-c1ccccc1 [Example 371, 4-PHENYL-8-(TRIFLUOROMETHYL)-N-[3-(TRIFLUOROMETHYL)PHENYL]QUINOLINE-3-CARBOXAMIDE] |
| 153 to 155 | O=C(Nc1ccc(Cl)cc1)c1cnc2c(C(F)(F)F)cccc2c1-c1ccccc1 [Example 372, N-(4-CHLOROPHENYL)-4-PHENYL-8-(TRIFLUOROMETHYL)QUINOLINE-3-CARBOXAMIDE] |
| 159 to 161 | O=C(Nc1cccc(Cl)c1)c1cnc2c(C(F)(F)F)cccc2c1-c1ccccc1 [Example 373, N-(3-CHLOROPHENYL)-4-PHENYL-8-(TRIFLUOROMETHYL)QUINOLINE-3-CARBOXAMIDE] |
| 173 to 175 | O=C(Nc1ccccc1Cl)c1cnc2c(C(F)(F)F)cccc2c1-c1ccccc1 [Example 374, N-(2-CHLOROPHENYL)-4-PHENYL-8-(TRIFLUOROMETHYL)QUINOLINE-3-CARBOXAMIDE] |
| 157 to 159 | O=C(Nc1ccc(F)cc1)c1cnc2c(C(F)(F)F)cccc2c1-c1ccccc1 [Example 376, N-(4-FLUOROPHENYL)-4-PHENYL-8-(TRIFLUOROMETHYL)QUINOLINE-3-CARBOXAMIDE] |
| 171 to 173 | O=C(Nc1cccc(F)c1)c1cnc2c(C(F)(F)F)cccc2c1-c1ccccc1 [Example 377, N-(3-FLUOROPHENYL)-4-PHENYL-8-(TRIFLUOROMETHYL)QUINOLINE-3-CARBOXAMIDE] |
| 188 to 190 | CN(C(=O)c1cnc2c(C(F)(F)F)cccc2c1-c1ccccc1)c1ccccc1 [Example 378, N-METHYL-N,4-DIPHENYL-8-(TRIFLUOROMETHYL)QUINOLINE-3-CARBOXAMIDE] |
